Source: the NIST ThermoML archive (doi:10.1021/acs.jced.9b00415)
Numbers after ± are expanded uncertainties.

Assay: xn = mol fraction of the nth substance listed
Conditions: 102 kPa, Liquid; for viscosity: Concentric cylinders viscometry; for mass density: Vibrating tube method

CCCCn1cc[n+](C)c1.CS(=O)(=O)[O-] [1-butyl-3-methylimidazolium methanesulfonate] + CCCCn1cc[n+](C)c1.[Cl-]
Conditions | mass density [kg/m3] | viscosity [mPa·s]
323.15 K, x1 = 0.3 | 1098.9 ± 2.8 | 388.2 ± 40
323.15 K, x1 = 0.4 | 1106.3 ± 2.8 | 365.5 ± 38
323.15 K, x1 = 0.5 | 1116.6 ± 2.8 | 267.1 ± 29
328.15 K, x1 = 0.1 | 1076.7 ± 3 | 490.5 ± 52
328.15 K, x1 = 0.2 | 1086.1 ± 2.9 | 428.3 ± 46
328.15 K, x1 = 0.3 | 1096.1 ± 2.9 | 278.2 ± 30
328.15 K, x1 = 0.4 | 1103.4 ± 2.8 | 261.8 ± 27
328.15 K, x1 = 0.5 | 1113.7 ± 2.8 | 195.6 ± 20
333.15 K, x1 = 0.1 | 1074 ± 2.9 | 346.3 ± 36
333.15 K, x1 = 0.2 | 1083.4 ± 2.9 | 304.6 ± 32
333.15 K, x1 = 0.3 | 1093.3 ± 2.8 | 204.2 ± 21
333.15 K, x1 = 0.4 | 1100.6 ± 2.8 | 192.2 ± 20
333.15 K, x1 = 0.5 | 1110.9 ± 2.8 | 146.5 ± 15
333.15 K, x1 = 0.6 | 1119.1 ± 2.7 | 128 ± 13
338.15 K, x1 = 0.1 | 1071.4 ± 2.9 | 250.7 ± 26
338.15 K, x1 = 0.2 | 1080.7 ± 2.9 | 222 ± 23
338.15 K, x1 = 0.3 | 1090.6 ± 2.8 | 153.2 ± 16
338.15 K, x1 = 0.4 | 1097.9 ± 2.8 | 144.3 ± 15
338.15 K, x1 = 0.5 | 1108.1 ± 2.8 | 112.1 ± 12
338.15 K, x1 = 0.6 | 1116.3 ± 2.7 | 98.76 ± 10
338.15 K, x1 = 0.7 | 1124.3 ± 2.7 | 82.97 ± 8.5
343.15 K, x1 = 0.1 | 1068.7 ± 2.9 | 185.6 ± 19
343.15 K, x1 = 0.2 | 1078 ± 2.9 | 165.4 ± 17
343.15 K, x1 = 0.3 | 1087.9 ± 2.8 | 117.2 ± 12
343.15 K, x1 = 0.4 | 1095.2 ± 2.8 | 110.5 ± 11
343.15 K, x1 = 0.5 | 1105.3 ± 2.8 | 87.31 ± 8.9
343.15 K, x1 = 0.6 | 1113.5 ± 2.7 | 77.62 ± 7.9
343.15 K, x1 = 0.7 | 1121.5 ± 2.7 | 65.89 ± 6.7
343.15 K, x1 = 0.8 | 1129.7 ± 2.6 | 56.84 ± 5.8
348.15 K, x1 = 0.1 | 1066.1 ± 2.9 | 140.3 ± 14
348.15 K, x1 = 0.2 | 1075.4 ± 2.9 | 125.8 ± 13
348.15 K, x1 = 0.3 | 1085.2 ± 2.8 | 91.36 ± 9.4
348.15 K, x1 = 0.4 | 1092.5 ± 2.8 | 86.21 ± 8.8
348.15 K, x1 = 0.5 | 1102.6 ± 2.8 | 69.19 ± 7
348.15 K, x1 = 0.6 | 1110.7 ± 2.7 | 62.01 ± 6.3
348.15 K, x1 = 0.7 | 1118.6 ± 2.7 | 53.15 ± 5.4
348.15 K, x1 = 0.8 | 1126.8 ± 2.6 | 46.31 ± 4.7
348.15 K, x1 = 0.9 | 1134.4 ± 2.6 | 39.65 ± 4
353.15 K, x1 = 0.1 | 1063.5 ± 2.9 | 108.1 ± 11
353.15 K, x1 = 0.2 | 1072.8 ± 2.9 | 97.5 ± 10
353.15 K, x1 = 0.3 | 1082.5 ± 2.8 | 72.39 ± 7.4
353.15 K, x1 = 0.4 | 1089.7 ± 2.8 | 68.4 ± 6.9
353.15 K, x1 = 0.5 | 1099.8 ± 2.7 | 55.7 ± 5.7
353.15 K, x1 = 0.6 | 1107.9 ± 2.7 | 50.28 ± 5.1
353.15 K, x1 = 0.7 | 1115.7 ± 2.7 | 43.48 ± 4.4
353.15 K, x1 = 0.8 | 1123.9 ± 2.6 | 38.24 ± 3.9
353.15 K, x1 = 0.9 | 1131.4 ± 2.6 | 33.04 ± 3.4
358.15 K, x1 = 0.1 | 1060.9 ± 2.9 | 84.67 ± 8.6
358.15 K, x1 = 0.2 | 1070.1 ± 2.9 | 76.85 ± 7.8
358.15 K, x1 = 0.3 | 1079.8 ± 2.8 | 58.23 ± 5.9
358.15 K, x1 = 0.4 | 1086.9 ± 2.8 | 55.11 ± 5.6
358.15 K, x1 = 0.5 | 1097 ± 2.7 | 45.47 ± 4.6
358.15 K, x1 = 0.6 | 1105 ± 2.7 | 41.33 ± 4.2
358.15 K, x1 = 0.7 | 1112.8 ± 2.6 | 36.03 ± 3.6
358.15 K, x1 = 0.8 | 1120.9 ± 2.6 | 31.96 ± 3.2
358.15 K, x1 = 0.9 | 1128.4 ± 2.6 | 27.85 ± 2.8
363.15 K, x1 = 0.1 | 1058.2 ± 2.9 | 67.42 ± 6.8
363.15 K, x1 = 0.2 | 1067.3 ± 2.8 | 61.54 ± 6.3
363.15 K, x1 = 0.3 | 1077 ± 2.8 | 47.51 ± 4.8
363.15 K, x1 = 0.4 | 1084.1 ± 2.7 | 45.04 ± 4.6
363.15 K, x1 = 0.5 | 1094.1 ± 2.7 | 37.62 ± 3.8
363.15 K, x1 = 0.6 | 1102.1 ± 2.7 | 34.41 ± 3.5
363.15 K, x1 = 0.7 | 1109.9 ± 2.6 | 30.22 ± 3.1
363.15 K, x1 = 0.8 | 1117.9 ± 2.6 | 27.02 ± 2.7
363.15 K, x1 = 0.9 | 1125.3 ± 2.6 | 23.72 ± 2.4
